Test results from ChEMBL document CHEMBL1201862, “PubChem BioAssay data set” (2004).
The source made the active and inactive calls.

Legend:
[1] = target: Voltage-gated inwardly rectifying potassium channel KCNH2 (Homo sapiens, UniProt Q12809); conditions: Potency;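 further: confirmatory quantitative high-throughput screen measuring inhibition of hERG channel activity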
[2] = target: Cytochrome P450 2D6 (Homo sapiens, UniProt P10635);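 further: CYP2D6 member of a cytochrome P450 panel assay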
[3] = tested on: HEK293; test: cells; conditions: Homo sapiens
[4] = tested on: HEK293; test: cells; conditions: Homo sapiens; remark: listed apart in the source
[5] = target: T1, Microphthalmia-associated transcription factor (Homo sapiens, UniProt O75030); test: reducers of TRPM1 reporter luminescence, concentration series – cell-based, SK-MEL-5, cherry-picked, set 3, MITF inhibitor project, dose response (AID 493073); type: functional;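 further: SK-MEL-5 melanoma cells with luciferase driven by the MITF target TRPM1 promoter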
T1 sequence (O75030 whole entry): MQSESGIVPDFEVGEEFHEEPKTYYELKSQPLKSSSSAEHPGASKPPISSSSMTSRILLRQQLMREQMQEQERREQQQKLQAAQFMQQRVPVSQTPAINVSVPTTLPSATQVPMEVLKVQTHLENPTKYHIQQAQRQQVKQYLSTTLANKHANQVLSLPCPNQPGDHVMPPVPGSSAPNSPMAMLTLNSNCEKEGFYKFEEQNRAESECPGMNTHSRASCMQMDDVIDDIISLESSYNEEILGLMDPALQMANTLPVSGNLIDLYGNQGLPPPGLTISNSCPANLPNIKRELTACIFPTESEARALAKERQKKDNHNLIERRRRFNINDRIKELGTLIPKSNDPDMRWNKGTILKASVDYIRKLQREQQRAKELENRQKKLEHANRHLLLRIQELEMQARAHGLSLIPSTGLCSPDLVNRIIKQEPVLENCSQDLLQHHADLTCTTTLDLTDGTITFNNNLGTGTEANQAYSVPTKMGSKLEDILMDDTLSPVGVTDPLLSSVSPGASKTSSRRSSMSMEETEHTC

[6] = tested on: A-375; test: proliferation inhibition in MITF-low A375 cells – cell-based, cherry-pick samples, set 2, counter-screen for MITF modulator project, dose response (AID 540335); type: functional; conditions: Homo sapiens
[7] = target: Trypsin (Sus scrofa, UniProt P00761); test: trypsin protease activity blockade – biochemical, quenched peptide fluorescence, cherry-pick, selectivity assay for Rce1 protease inhibitor project, dose response (AID 488789)
[8] = target: T2, CAAX prenyl protease 2 (Saccharomyces cerevisiae S288c, UniProt Q03530); type: biochemical
T2 sequence (Q03530 whole entry): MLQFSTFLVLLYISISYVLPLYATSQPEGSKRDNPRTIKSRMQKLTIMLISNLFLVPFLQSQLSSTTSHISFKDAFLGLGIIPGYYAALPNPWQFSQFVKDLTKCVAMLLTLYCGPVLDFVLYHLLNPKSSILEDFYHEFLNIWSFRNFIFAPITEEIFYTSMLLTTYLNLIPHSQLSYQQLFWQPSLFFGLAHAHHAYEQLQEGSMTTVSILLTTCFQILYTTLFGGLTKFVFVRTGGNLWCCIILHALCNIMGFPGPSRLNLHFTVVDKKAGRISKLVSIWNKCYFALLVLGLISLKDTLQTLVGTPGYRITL

[9] = target: CAAX prenyl protease 2 (Homo sapiens, UniProt Q9Y256); test: inhibition of Ras-converting CAAX protease Rce1 – biochemical, yeast membranes, quenched-peptide fluorescence, cherry-pick, dose response (AID 588849)
[10] = tested on: HeLa; test: ATP-based viability loss in HeLa cells – cell-based, CellTiter-Glo luminescence, cherry-pick samples, cytotoxicity control for MITF activator project, dose response (AID 540259); type: functional; conditions: Homo sapiens

Cytochrome P450 2D6, sequence (P10635 whole entry): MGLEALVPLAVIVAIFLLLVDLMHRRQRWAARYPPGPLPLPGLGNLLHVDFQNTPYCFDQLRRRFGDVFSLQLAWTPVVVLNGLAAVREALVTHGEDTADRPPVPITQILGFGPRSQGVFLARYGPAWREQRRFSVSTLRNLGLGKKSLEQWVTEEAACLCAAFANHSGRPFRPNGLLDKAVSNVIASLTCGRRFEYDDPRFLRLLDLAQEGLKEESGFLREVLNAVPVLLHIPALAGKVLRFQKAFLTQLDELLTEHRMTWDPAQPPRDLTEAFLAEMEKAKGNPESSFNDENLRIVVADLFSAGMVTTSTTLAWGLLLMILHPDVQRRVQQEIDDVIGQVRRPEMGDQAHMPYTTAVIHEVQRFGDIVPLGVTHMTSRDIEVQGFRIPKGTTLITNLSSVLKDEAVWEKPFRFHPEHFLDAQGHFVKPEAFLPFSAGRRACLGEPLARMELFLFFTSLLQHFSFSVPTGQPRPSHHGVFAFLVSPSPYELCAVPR
CAAX prenyl protease 2 (Homo sapiens, UniProt Q9Y256), sequence (Q9Y256 whole entry): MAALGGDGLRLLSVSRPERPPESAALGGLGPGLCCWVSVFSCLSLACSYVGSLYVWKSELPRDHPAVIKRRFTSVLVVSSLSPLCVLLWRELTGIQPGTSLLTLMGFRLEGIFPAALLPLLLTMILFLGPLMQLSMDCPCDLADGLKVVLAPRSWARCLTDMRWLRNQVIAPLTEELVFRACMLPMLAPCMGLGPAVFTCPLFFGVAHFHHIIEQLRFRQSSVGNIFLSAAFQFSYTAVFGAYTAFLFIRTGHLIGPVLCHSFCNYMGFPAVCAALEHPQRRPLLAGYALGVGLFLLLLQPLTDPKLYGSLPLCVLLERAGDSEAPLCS
Trypsin, sequence (P00761 whole entry): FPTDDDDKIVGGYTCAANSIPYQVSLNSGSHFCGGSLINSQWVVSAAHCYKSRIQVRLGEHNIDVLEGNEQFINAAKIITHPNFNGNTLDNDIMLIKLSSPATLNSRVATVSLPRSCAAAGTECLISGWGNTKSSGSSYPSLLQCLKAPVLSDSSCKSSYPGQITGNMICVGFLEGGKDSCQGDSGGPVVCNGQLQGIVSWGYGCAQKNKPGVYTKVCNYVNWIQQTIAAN
Voltage-gated inwardly rectifying potassium channel KCNH2, sequence (Q12809 whole entry): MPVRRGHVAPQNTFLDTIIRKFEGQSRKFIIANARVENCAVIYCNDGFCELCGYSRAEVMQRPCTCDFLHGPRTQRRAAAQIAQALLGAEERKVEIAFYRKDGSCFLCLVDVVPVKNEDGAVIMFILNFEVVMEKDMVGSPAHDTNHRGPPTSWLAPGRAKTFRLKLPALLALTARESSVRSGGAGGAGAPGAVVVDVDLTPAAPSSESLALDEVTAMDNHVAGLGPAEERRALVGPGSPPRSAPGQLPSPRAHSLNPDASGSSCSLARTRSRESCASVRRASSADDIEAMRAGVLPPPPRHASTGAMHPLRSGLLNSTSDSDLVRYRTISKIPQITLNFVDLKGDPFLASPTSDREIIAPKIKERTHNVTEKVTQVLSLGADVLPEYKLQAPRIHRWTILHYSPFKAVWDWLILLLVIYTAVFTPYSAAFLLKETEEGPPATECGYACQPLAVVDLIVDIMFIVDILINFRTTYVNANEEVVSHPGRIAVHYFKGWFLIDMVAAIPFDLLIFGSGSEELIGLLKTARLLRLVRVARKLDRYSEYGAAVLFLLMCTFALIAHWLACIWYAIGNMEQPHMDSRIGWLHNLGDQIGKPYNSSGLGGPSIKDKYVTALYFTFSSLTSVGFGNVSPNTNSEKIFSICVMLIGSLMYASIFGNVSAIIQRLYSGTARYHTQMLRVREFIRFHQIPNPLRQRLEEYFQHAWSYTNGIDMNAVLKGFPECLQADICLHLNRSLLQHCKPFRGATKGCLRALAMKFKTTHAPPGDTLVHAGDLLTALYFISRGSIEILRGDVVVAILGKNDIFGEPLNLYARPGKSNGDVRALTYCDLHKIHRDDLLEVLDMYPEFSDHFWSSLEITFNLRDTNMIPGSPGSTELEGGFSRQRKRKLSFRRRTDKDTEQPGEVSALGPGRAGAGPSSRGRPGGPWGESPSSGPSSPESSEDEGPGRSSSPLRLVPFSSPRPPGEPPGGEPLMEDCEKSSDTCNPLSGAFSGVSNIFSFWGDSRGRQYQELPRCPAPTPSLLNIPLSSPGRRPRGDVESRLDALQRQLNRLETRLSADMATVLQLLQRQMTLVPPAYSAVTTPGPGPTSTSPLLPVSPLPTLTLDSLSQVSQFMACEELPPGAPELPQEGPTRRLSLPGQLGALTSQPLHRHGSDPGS

COc1cc(CC(C)N)c(OC)cc1I (configuration not stated)
AC50 [1]: 15.8 µM (inconclusive)

CCN1CCN(c2cc(=O)n(-c3cc(Cl)ccc3C)c(=O)[nH]2)CC1
AC50 [2]: inconclusive

CC1=C([N+](=O)[O-])C(c2cccc(Br)c2)C2=C(O)c3ccccc3C2=N1 (configuration not stated)
EC50 [3]: > 59.6 µM (inactive) | EC50 [4]: > 59.6 µM (inactive)

CCCCn1c(=N)n(CCOc2ccc(C)cc2)c2ccccc21
AC50 [5]: 11.3 µM (active) | AC50 [6]: 18.3 µM (active)

CC(C)(C)C(=O)C[n+]1ccc(C(N)=O)cc1
AC50 [7]: 13.4 µM (active) | AC50 [8]: 15.1 µM (active) | AC50 [9]: 12.5 µM (active)

Cc1ccccc1NC(=O)Cc1nc(COC(=O)c2ccc(S(C)(=O)=O)c([N+](=O)[O-])c2)cs1
AC50 [5]: 12.8 µM (active) | AC50 [6]: 28.2 µM (active)

COc1cccc(NC(=O)Nc2ccc3c(c2)nnn3C)c1
AC50 [10]: > 350 µM (inactive)
